Test results reported in patent publication US20240025884A1 (Dong-A ST Co., Ltd., priority 2022, published 2024).

Each compound was assayed against GCN2 (Homo sapiens (Human), UniProt Q9P2K8) (assay: GCN2 Biochemical Assay (TR-FRET, GFP-eIF2S1 substrate phosphorylation)). Conditions: read-out: IC50 (GCN2 Inhibitory Activity).
Procedure: Experimental Example 1: GCN2 Biochemical Assay
An inhibitory effect of the inventive compound on GCN2 was identified as follows.
384-well (Greiner #784075) (or 1536-well [Greiner #782075]) plates containing 60 nl (or 20 nl for 1536-well) of compound in 100% DMSO (10 concentrations serially diluted 3.16-fold) were prepared. Two copies of plates were used—one for the GCN2 assay and a second for an artifact plate. Working reagents were prepared as follows—reaction buffer: Tris pH 7.5 20 mM, MgCl2 5 mM, DTT 1 mM, Brij-35 0.005%, EGTA 0.5 mM in water; 2× enzyme solution: GCN2 (produced in-house) 1.6 nM in reaction buffer; 2× substrate solution: GFP-eIFS1 (Thermo Fisher Scientific, PV4809) 50 nM, ATP 0.2 mM, tRNA 0.4 mg/ml in reaction buffer; p-GFP-eIF2S1 (artifact) solution: p-GFP-eIFS1 (produced by incubation of 100 nM GFP-eIF2S1 in reaction buffer with 100 uM ATP and 1 nM PERK KD enzyme for 3 hr at room temperature) 2 nM in reaction buffer; 3× stop/antibody solution: p-GFP-EIF2S1 Th-Ab (Thermo Fisher Scientific, PV4816) 6 nM, AZ13933939 3 uM, BSA 3% in reaction buffer. Reagents were loaded onto a liquid dispenser (Certus FLEX, Trajan Scientific and Medical), and 3 ul (1 ul for 1536-well) of 2× enzyme solution, followed by 3 ul (1 ul for 1536-well) of 2× substrate solution was added to the plates. When small numbers of plates were processed, the enzyme solution was added first to all plates, then the valve used for the substrate solution was primed immediately prior to use. Plates were tapped or spun 1 min/1K/RT to ensure proper mixing, followed by incubation at room temperature for 70 mins, covered/stacked in the dark. For the artifact plate, 6 ul of p-GFP-eIF2S1 solution was added prior to adding the stop/antibody solution. 3 ul (1 ul for 1536-well) of 3× stop/antibody solution was added to the plates, followed by a spin-down for 1 min/1K/RT, and incubation for 2-3 hr, sealed or covered with lids in the dark at room temperature. Plates were read on a plate reader (PHERAstar FSX, BMF Labtech) at Ex 340/Em 490/Em 520 nm.

GCN2, sequence (Q9P2K8 whole entry): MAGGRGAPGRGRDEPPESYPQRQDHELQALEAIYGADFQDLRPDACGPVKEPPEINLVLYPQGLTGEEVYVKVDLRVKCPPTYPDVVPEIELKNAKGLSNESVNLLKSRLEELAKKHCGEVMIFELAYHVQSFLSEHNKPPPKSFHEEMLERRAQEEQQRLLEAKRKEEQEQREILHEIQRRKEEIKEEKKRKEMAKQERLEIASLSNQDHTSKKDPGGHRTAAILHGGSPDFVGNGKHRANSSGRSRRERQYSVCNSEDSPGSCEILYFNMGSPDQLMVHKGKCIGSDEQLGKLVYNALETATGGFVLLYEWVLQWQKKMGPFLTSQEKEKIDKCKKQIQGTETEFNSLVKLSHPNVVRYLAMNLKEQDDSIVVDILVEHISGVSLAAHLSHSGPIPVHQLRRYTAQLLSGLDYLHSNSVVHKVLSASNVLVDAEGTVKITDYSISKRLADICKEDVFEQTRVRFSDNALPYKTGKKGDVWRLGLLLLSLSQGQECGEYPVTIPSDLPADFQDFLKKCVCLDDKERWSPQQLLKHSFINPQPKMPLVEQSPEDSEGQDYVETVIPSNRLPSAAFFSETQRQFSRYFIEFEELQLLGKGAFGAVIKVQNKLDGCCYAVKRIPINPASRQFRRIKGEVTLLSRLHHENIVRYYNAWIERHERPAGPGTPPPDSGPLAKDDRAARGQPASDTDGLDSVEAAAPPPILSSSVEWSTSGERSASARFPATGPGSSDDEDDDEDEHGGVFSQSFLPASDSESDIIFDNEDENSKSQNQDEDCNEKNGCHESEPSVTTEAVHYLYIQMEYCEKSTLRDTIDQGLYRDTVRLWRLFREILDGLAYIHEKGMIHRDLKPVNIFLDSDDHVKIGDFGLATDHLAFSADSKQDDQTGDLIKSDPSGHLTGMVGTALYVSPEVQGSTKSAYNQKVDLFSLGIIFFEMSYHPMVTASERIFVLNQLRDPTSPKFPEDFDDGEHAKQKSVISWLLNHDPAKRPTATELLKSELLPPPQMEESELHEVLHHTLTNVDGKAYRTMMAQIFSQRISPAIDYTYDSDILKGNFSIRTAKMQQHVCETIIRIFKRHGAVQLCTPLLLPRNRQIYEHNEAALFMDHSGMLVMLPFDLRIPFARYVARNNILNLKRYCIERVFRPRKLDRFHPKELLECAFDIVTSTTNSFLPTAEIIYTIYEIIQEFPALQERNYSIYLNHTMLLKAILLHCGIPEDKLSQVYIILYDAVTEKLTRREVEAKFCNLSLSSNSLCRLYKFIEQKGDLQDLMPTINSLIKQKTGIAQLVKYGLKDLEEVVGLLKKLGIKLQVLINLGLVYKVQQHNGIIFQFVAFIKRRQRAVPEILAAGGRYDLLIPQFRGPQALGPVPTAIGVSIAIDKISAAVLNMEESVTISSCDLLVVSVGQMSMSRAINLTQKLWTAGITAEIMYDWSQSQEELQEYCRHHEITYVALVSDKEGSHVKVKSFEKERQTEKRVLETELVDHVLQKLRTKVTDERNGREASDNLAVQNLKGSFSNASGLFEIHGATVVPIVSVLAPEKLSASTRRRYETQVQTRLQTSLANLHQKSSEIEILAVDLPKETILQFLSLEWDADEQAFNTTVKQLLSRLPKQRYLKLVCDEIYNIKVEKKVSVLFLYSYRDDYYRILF

SMILES	IC50 [nM]
Cc1cnc(Nc2cc(C)n(C)n2)nc1-c1c[nH]c2c(NC(=O)CN3C[C@@H](F)[C@H](Oc4ccncc4)C3)cccc12 [Example 51, N-(3-(2-((1,5-dimethyl-1H-pyrazol-3-yl)amino)-5-methylpyrimidin-4-yl)-1H-indol-7-yl)-2-((3R,4R)-3-fluoro-4-(pyridin-4-yloxy)pyrrolidin-1-yl)acetamide]	10 to 100
Cc1cnc(Nc2cc(C)n(C)n2)nc1-c1c[nH]c2c(NC(=O)CN3C[C@H](F)[C@H](Oc4ccnc(NC5CC5)n4)C3)cccc12 [Example 52, 2-((3R,4S)-3-((2-(cyclopropylamino)pyrimidin-4-yl)oxy)-4-fluoropyrrolidin-1-yl)-N-(3-(2-((1,5-dimethyl-1H-pyrazol-3-yl)amino)-5-methylpyrimidin-4-yl)-1H-indol-7-yl)acetamide]	< 10
Cc1cnc(Nc2cc(C)n(C)n2)nc1-c1c[nH]c2c(NC(=O)CN3C[C@@H](F)[C@H](Oc4ccnc(NC5CC5)n4)C3)cccc12 [Example 53, 2-((3R,4R)-3-((2-(cyclopropylamino)pyrimidin-4-yl)oxy)-4-fluoropyrrolidin-1-yl)-N-(3-(2-((1,5-dimethyl-1H-pyrazol-3-yl)amino)-5-methylpyrimidin-4-yl)-1H-indol-7-yl)acetamide]	< 10
Cc1cnc(Nc2cc(C)n(C)n2)nc1-c1c[nH]c2c(NC(=O)CN3C[C@@H](F)[C@@H](Oc4ccnc(NC5CC5)n4)C3)cccc12 [Example 54, 2-((3S,4R)-3-((2-(cyclopropylamino)pyrimidin-4-yl)oxy)-4-fluoropyrrolidin-1-yl)-N-(3-(2-((1,5-dimethyl-1H-pyrazol-3-yl)amino)-5-methylpyrimidin-4-yl)-1H-indol-7-yl)acetamide]	10 to 100
COC(=O)[C@@H]1C[C@H](Oc2ccnc(NC3CC3)n2)CN1CC(=O)Nc1cccc2c(-c3nc(Nc4cc(C)n(C)n4)ncc3C)c[nH]c12 [Example 55, methyl (2S,4S)-4-((2-(cyclopropylamino)pyrimidin-4-yl)oxy)-1-(2-((3-(2-((1,5-dimethyl-1H-pyrazol-3-yl)amino)-5-methylpyrimidin-4-yl)-1H-indol-7-yl)amino)-2-oxoethyl)pyrrolidine-2-carboxylate]	< 10
Cc1cnc(Nc2cc(C)n(C)n2)nc1-c1c[nH]c2c(NC(=O)CN3C[C@@H](Oc4ccnc(NC5CC5)n4)C[C@H]3C(=O)O)cccc12 [Example 56, (2S,4S)-4-((2-(cyclopropylamino)pyrimidin-4-yl)oxy)-1-(2-((3-(2-((1,5-dimethyl-1H-pyrazol-3-yl)amino)-5-methylpyrimidin-4-yl)-1H-indol-7-yl)amino)-2-oxoethyl)pyrrolidine-2-carboxylic acid]	10 to 100
Cc1cnc(Nc2cc(C)n(C)n2)nc1-c1c[nH]c2c(NC(=O)CN3C[C@@H](Oc4ccnc(NC5CC5)n4)C[C@H]3CO)cccc12 [Example 57, 2-((2S,4S)-4-((2-(cyclopropylamino)pyrimidin-4-yl)oxy)-2-(hydroxymethyl)pyrrolidin-1-yl)-N-(3-(2-((1,5-dimethyl-1H-pyrazol-3-yl)amino)-5-methylpyrimidin-4-yl)-1H-indol-7-yl)acetamide]	< 10
Cc1cnc(Nc2cc(C)n(C)n2)nc1-c1c[nH]c2c(NC(=O)CN3C[C@@H](Oc4ccnc(NC5CC5)n4)C[C@H]3C(N)=O)cccc12 [Example 58, (2S,4S)-4-((2-(cyclopropylamino)pyrimidin-4-yl)oxy)-1-(2-((3-(2-((1,5-dimethyl-1H-pyrazol-3-yl)amino)-5-methylpyrimidin-4-yl)-1H-indol-7-yl)amino)-2-oxoethyl)pyrrolidine-2-carboxamide]	< 10
Cc1cnc(Nc2cc(C)n(C)n2)nc1-c1c[nH]c2c(NC(=O)CN3C[C@@H](Oc4ccnc(NC5CC5)n4)C[C@H]3CN)cccc12 [Example 59, 2-((2S,4S)-2-(aminomethyl)-4-((2-(cyclopropylamino)pyrimidin-4-yl)oxy)pyrrolidin-1-yl)-N-(3-(2-((1,5-dimethyl-1H-pyrazol-3-yl)amino)-5-methylpyrimidin-4-yl)-1H-indol-7-yl)acetamide]	< 10
Cc1cnc(Nc2cc(C)n(C)n2)nc1-c1c[nH]c2c(NC(=O)CN3CC[C@H](Oc4ccnc(NC5CC5)n4)C3=O)cccc12 [Example 60, (S)-2-(3-((2-(cyclopropylamino)pyrimidin-4-yl)oxy)-2-oxopyrrolidin-1-yl)-N-(3-(2-((1,5-dimethyl-1H-pyrazol-3-yl)amino)-5-methylpyrimidin-4-yl)-1H-indol-7-yl)acetamide]	10 to 100
Cc1cnc(Nc2cc(C)n(C)n2)nc1-c1c[nH]c2c(NC(=O)CN3C[C@@H](Oc4ccnc(NC5CC5)n4)CC3=O)cccc12 [Example 61, (S)-2-(4-((2-(cyclopropylamino)pyrimidin-4-yl)oxy)-2-oxopyrrolidin-1-yl)-N-(3-(2-((1,5-dimethyl-1H-pyrazol-3-yl)amino)-5-methylpyrimidin-4-yl)-1H-indol-7-yl)acetamide]	< 10

Next, values leading:

IC50 [nM]	SMILES
100 to 1000	Cc1cnc(Nc2cc(C)n(C)n2)nc1-c1c[nH]c2c(NC(=O)CN3CCC(CC#N)C3)cccc12 (stereo not drawn) [Example 45, 2-(3-(cyanomethyl)pyrrolidin-1-yl)-N-(3-(2-((1,5-dimethyl-1H-pyrazol-3-yl)amino)-5-methylpyrimidin-4-yl)-1H-indol-7-yl)acetamide]
100 to 1000	Cc1cnc(Nc2cc(C)n(C)n2)nc1-c1c[nH]c2c(NC(=O)CN3CC[C@H](CC#N)C3)cccc12 [Example 46, (R)-2-(3-(cyanomethyl)pyrrolidin-1-yl)-N-(3-(2-((1,5-dimethyl-1H-pyrazol-3-yl)amino)-5-methylpyrimidin-4-yl)-1H-indol-7-yl)acetamide]
10 to 100	Cc1cnc(Nc2cc(C)n(C)n2)nc1-c1c[nH]c2c(NC(=O)CN3CC[C@H](Nc4ccncn4)C3)cccc12 [Example 47, (S)-N-(3-(2-((1,5-dimethyl-1H-pyrazol-3-yl)amino)-5-methylpyrimidin-4-yl)-1H-indol-7-yl)-2-(3-(pyrimidin-4-ylamino)pyrrolidin-1-yl)acetamide]
10 to 100	Cc1cnc(Nc2cc(C)n(C)n2)nc1-c1c[nH]c2c(NC(=O)CN3CC[C@@H](Nc4ccncn4)C3)cccc12 [Example 48, (R)-N-(3-(2-((1,5-dimethyl-1H-pyrazol-3-yl)amino)-5-methylpyrimidin-4-yl)-1H-indol-7-yl)-2-(3-(pyrimidin-4-ylamino)pyrrolidin-1-yl)acetamide]
10 to 100	Cc1cnc(Nc2cc(C)n(C)n2)nc1-c1c[nH]c2c(NC(=O)CN3CC[C@@H](Nc4ccncc4)C3)cccc12 [Example 49, (R)-N-(3-(2-((1,5-dimethyl-1H-pyrazol-3-yl)amino)-5-methylpyrimidin-4-yl)-1H-indol-7-yl)-2-(3-(pyridin-4-ylamino)pyrrolidin-1-yl)acetamide]
10 to 100	Cc1cnc(Nc2cc(C)n(C)n2)nc1-c1c[nH]c2c(NC(=O)CN3C[C@@H](F)[C@@H](O)C3)cccc12 [Example 50, N-(3-(2-((1,5-dimethyl-1H-pyrazol-3-yl)amino)-5-methylpyrimidin-4-yl)-1H-indol-7-yl)-2-((3R,4S)-3-fluoro-4-hydroxypyrrolidin-1-yl)acetamide]
100 to 1000	Cc1cnc(Nc2cc(C)n(C)n2)nc1-c1c[nH]c2c(NC(=O)CN3CC[C@H](C(=O)N4CCNC(=O)C4)C3)cccc12 [Example 62, (S)-N-(3-(2-((1,5-dimethyl-1H-pyrazol-3-yl)amino)-5-methylpyrimidin-4-yl)-1H-indol-7-yl)-2-(3-(3-oxopiperazine-1-carbonyl)pyrrolidin-1-yl)acetamide]
100 to 1000	Cc1cnc(Nc2cc(C)n(C)n2)nc1-c1c[nH]c2c(NC(=O)CN3CC[C@H](C(=O)N4CCOCC4)C3)cccc12 [Example 63, (S)-N-(3-(2-((1,5-dimethyl-1H-pyrazol-3-yl)amino)-5-methylpyrimidin-4-yl)-1H-indol-7-yl)-2-(3-(morpholine-4-carbonyl)pyrrolidin-1-yl)acetamide]
10 to 100	Cc1cnc(Nc2cc(C)n(C)n2)nc1-c1c[nH]c2c(NC(=O)CN3CC[C@H](C(=O)N4CCSCC4)C3)cccc12 [Example 64, (S)-N-(3-(2-((1,5-dimethyl-1H-pyrazol-3-yl)amino)-5-methylpyrimidin-4-yl)-1H-indol-7-yl)-2-(3-(thiomorpholine-4-carbonyl)pyrrolidin-1-yl)acetamide]
100 to 1000	Cc1cnc(Nc2cc(C)n(C)n2)nc1-c1c[nH]c2c(NC(=O)CN3CC[C@@H](C(=O)N4CCN(C)CC4)C3)cccc12 [Example 65, (R)-N-(3-(2-((1,5-dimethyl-1H-pyrazol-3-yl)amino)-5-methylpyrimidin-4-yl)-1H-indol-7-yl)-2-(3-(4-methylpiperazine-1-carbonyl)pyrrolidin-1-yl)acetamide]
